Data: patent publication US7338956B2, “Acylamino-substituted heteroaromatic compounds and their use as pharmaceuticals” (Sanofi-Aventis Deutschland GmbH, priority 2002, dated 2008)

Test system: eNOS promoter
Assay: Determination of activation of eNOS transcription (eNOS promoter firefly luciferase reporter gene assay)
Type: cell-based
Details: human endothelial cell line stable transfected with eNOS promoter-luciferase construct; 18 h incubation; EC50 determined graphically; read-out: EC50 values of transcription induction ratio
Experimental: Activation of eNOS transcription was determined as described in detail in Li et al., “Activation of protein kinase C alpha and/or epsilon enhances transcription of the human endothelial nitric oxide synthase gene”, Mol. Pharmacol. 53 (1998) 630 (the content of which is incorporated herein by reference). Briefly, a 3.5 kB long fragment 5′ of the starting codon of the eNOS gene was cloned, sequenced and cloned in firefly luciferase expression plasmids to monitor activation of the eNOS promoter by reporter gene activity. A human endothelial cell line stable transfected and expressing this promoter-reporter construct was used for compound testing. Cells were incubated for 18 h with compounds.
All compounds were dissolved in sterile dimethyl sulfoxide (DMSO). A final concentration of 0.5% DMSO in complete medium was allowed. Induction of reporter gene expression in these cells was measured using a standard luciferase assay system (Promega, Cat. No E150) according to the manufacturer's instructions. Luciferase induction in cells incubated with compounds were compared to those incubated with solvent alone. The ratio of both activities (transcription induction ratio, TIR) was plotted as a function of compound concentration. […] EC50 values of transcription induction ratios as a function of compound concentration were determined graphically.

Which EC50 does the source give for `O=C(Nc1nc2cc(Cl)ccc2s1)c1ccc(F)cc1` [Example 123, N-(5-Chlorobenzothiazol-2-yl)-4-fluorobenzamide] here?
The EC50 was 12 µM.

With `O=C(Nc1nc2cccc(Cl)c2s1)c1ccc(F)cc1` [Example 124, N-(7-Chlorobenzothiazol-2-yl)-4-fluorobenzamide] as the molecule, how does the EC50 read?
Its EC50 is under 0.1 µM.
